Source: publication PMC9783573, “Introduction of a SiFA Moiety into the D-Glutamate Chain of DOTA-PP-F11N Results in Radiohybrid-Based CCK-2R-Targeted Compounds with Improved Pharmacokinetics In Vivo” (Pharmaceuticals, 2022)
Starred links: 1 amine or outer side, 2 acyl side, 3 side chain; linkers in the order of their positions; H or OH if unused. Non-standard residues stand in square brackets, D forms with d. Residues, ends and D or L forms follow the SMILES beside them. *: point of attachment. X1 = O=C(O)CN1CCN(CC(=O)O)CCN([C@H](CCC(=O)*)C(=O)O)CCN(CC(=O)O)CC1; Benzoyl(4-SiFtBu2) = CC(C)(C)[Si](F)(c1ccc(C(=O)*)cc1)C(C)(C)C; d(γGlu) = O=C(O)[C@@H](CCC(=O)[*:2])N[*:1]; Nle = CCCC[C@H](N)C(=O)O; dDap = NC[C@@H](N)C(=O)O

Test: Lipophilicity, n-octanol/PBS (pH 7.4) distribution coefficient
Assay type: physicochemical
Conditions: 177Lu-labelled peptide; n-octanol/PBS pH 7.4; read-out: logD7.4
Procedure: Lipophilicity (depicted as octanol-phosphate-buffered saline solution (PBS, pH = 7.4) distribution coefficient, logD7.4) was determined via dissolving the ^177Lu-labelled peptide (approx. 1 MBq) in a mixture (1/1, v/v) of n-octanol and PBS. The suspension was vortexed in a reaction vial (1.5 mL) for 3 min at RT and the vial was centrifuged at 9000× […] for 5 min (Biofuge 15, Heraus Sepatech GmbH, Osterode, Germany). 200 μL aliquots of both layers were measured separately in a γ-counter (Perkin Elmer, Waltham, MA, USA). The experiment was repeated at least five times.

Row | Compound | logD
1 | CCCC[C@H](NC(=O)[C@H](Cc1c[nH]c2ccccc12)NC(=O)CNC(=O)[C@H](Cc1ccc(O)cc1)NC(=O)[C@H](C)NC(=O)[C@@H](CNC(=O)c1ccc([Si](F)(C(C)(C)C)C(C)(C)C)cc1)NC(=O)[C@@H](CCC(=O)O)NC(=O)[C@@H](CCC(=O)O)NC(=O)[C@@H](CCC(=O)O)NC(=O)[C@@H](CCC(=O)O)NC(=O)[C@@H](CCC(=O)O)NC(=O)[C@@H](CCC(=O)O)NC(=O)CC[C@H](C(=O)O)N1CCN(CC(=O)O)CCN(CC(=O)O)CCN(CC(=O)O)CC1)C(=O)N[C@@H](CC(=O)O)C(=O)N[C@@H](Cc1ccccc1)C(N)=O [[nat/177Lu]Lu-(R)-DOTAGA-rhCCK-1, metal not drawn] (X1-[dE][dE][dE][dE][dE][dE][dDap](Benzoyl(4-SiFtBu2))AYGW[Nle]DF-NH2) | -1.71 ± 0.1
2 | CCCC[C@H](NC(=O)[C@H](Cc1c[nH]c2ccccc12)NC(=O)CNC(=O)[C@H](Cc1ccc(O)cc1)NC(=O)[C@H](C)NC(=O)[C@@H](CCC(=O)O)NC(=O)[C@@H](CNC(=O)c1ccc([Si](F)(C(C)(C)C)C(C)(C)C)cc1)NC(=O)[C@@H](CCC(=O)O)NC(=O)[C@@H](CCC(=O)O)NC(=O)[C@@H](CCC(=O)O)NC(=O)[C@@H](CCC(=O)O)NC(=O)[C@@H](CCC(=O)O)NC(=O)CC[C@H](C(=O)O)N1CCN(CC(=O)O)CCN(CC(=O)O)CCN(CC(=O)O)CC1)C(=O)N[C@@H](CC(=O)O)C(=O)N[C@@H](Cc1ccccc1)C(N)=O [[nat/177Lu]Lu-(R)-DOTAGA-rhCCK-2, metal not drawn] (X1-[dE][dE][dE][dE][dE][dDap](Benzoyl(4-SiFtBu2))[dE]AYGW[Nle]DF-NH2) | -1.95 ± 0.09
3 | CCCC[C@H](NC(=O)[C@H](Cc1c[nH]c2ccccc12)NC(=O)CNC(=O)[C@H](Cc1ccc(O)cc1)NC(=O)[C@H](C)NC(=O)[C@@H](CCC(=O)O)NC(=O)[C@@H](CCC(=O)O)NC(=O)[C@@H](CCC(=O)O)NC(=O)[C@@H](CNC(=O)c1ccc([Si](F)(C(C)(C)C)C(C)(C)C)cc1)NC(=O)[C@@H](CCC(=O)O)NC(=O)[C@@H](CCC(=O)O)NC(=O)[C@@H](CCC(=O)O)NC(=O)CC[C@H](C(=O)O)N1CCN(CC(=O)O)CCN(CC(=O)O)CCN(CC(=O)O)CC1)C(=O)N[C@@H](CC(=O)O)C(=O)N[C@@H](Cc1ccccc1)C(N)=O [[nat/177Lu]Lu-(R)-DOTAGA-rhCCK-4, metal not drawn] (X1-[dE][dE][dE][dDap](Benzoyl(4-SiFtBu2))[dE][dE][dE]AYGW[Nle]DF-NH2) | -2.19 ± 0.08
4 | CCCC[C@H](NC(=O)[C@H](Cc1c[nH]c2ccccc12)NC(=O)CNC(=O)[C@H](Cc1ccc(O)cc1)NC(=O)[C@H](C)NC(=O)[C@@H](CCC(=O)O)NC(=O)[C@@H](CCC(=O)O)NC(=O)[C@@H](CCC(=O)O)NC(=O)[C@@H](CCC(=O)O)NC(=O)[C@@H](CNC(=O)c1ccc([Si](F)(C(C)(C)C)C(C)(C)C)cc1)NC(=O)[C@@H](CCC(=O)O)NC(=O)[C@@H](CCC(=O)O)NC(=O)CC[C@H](C(=O)O)N1CCN(CC(=O)O)CCN(CC(=O)O)CCN(CC(=O)O)CC1)C(=O)N[C@@H](CC(=O)O)C(=O)N[C@@H](Cc1ccccc1)C(N)=O [[nat/177Lu]Lu-(R)-DOTAGA-rhCCK-5, metal not drawn] (X1-[dE][dE][dDap](Benzoyl(4-SiFtBu2))[dE][dE][dE][dE]AYGW[Nle]DF-NH2) | -2.67 ± 0.05
5 | CCCC[C@H](NC(=O)[C@H](Cc1c[nH]c2ccccc12)NC(=O)CNC(=O)[C@H](Cc1ccc(O)cc1)NC(=O)[C@H](C)NC(=O)[C@@H](CCC(=O)O)NC(=O)[C@@H](CCC(=O)O)NC(=O)[C@@H](CCC(=O)O)NC(=O)[C@@H](CCC(=O)O)NC(=O)[C@@H](CCC(=O)O)NC(=O)[C@@H](CNC(=O)c1ccc([Si](F)(C(C)(C)C)C(C)(C)C)cc1)NC(=O)[C@@H](CCC(=O)O)NC(=O)CC[C@H](C(=O)O)N1CCN(CC(=O)O)CCN(CC(=O)O)CCN(CC(=O)O)CC1)C(=O)N[C@@H](CC(=O)O)C(=O)N[C@@H](Cc1ccccc1)C(N)=O [[nat/177Lu]Lu-(R)-DOTAGA-rhCCK-6, metal not drawn] (X1-[dE][dDap](Benzoyl(4-SiFtBu2))[dE][dE][dE][dE][dE]AYGW[Nle]DF-NH2) | -2.22 ± 0.08
6 | CCCC[C@H](NC(=O)[C@H](Cc1c[nH]c2ccccc12)NC(=O)CNC(=O)[C@H](Cc1ccc(O)cc1)NC(=O)[C@H](C)NC(=O)[C@@H](CCC(=O)O)NC(=O)[C@@H](CCC(=O)O)NC(=O)[C@@H](CCC(=O)O)NC(=O)[C@@H](CCC(=O)O)NC(=O)[C@@H](CCC(=O)O)NC(=O)[C@@H](CCC(=O)O)NC(=O)[C@@H](CNC(=O)c1ccc([Si](F)(C(C)(C)C)C(C)(C)C)cc1)NC(=O)CC[C@H](C(=O)O)N1CCN(CC(=O)O)CCN(CC(=O)O)CCN(CC(=O)O)CC1)C(=O)N[C@@H](CC(=O)O)C(=O)N[C@@H](Cc1ccccc1)C(N)=O [[nat/177Lu]Lu-(R)-DOTAGA-rhCCK-7, metal not drawn] (X1-[dDap](Benzoyl(4-SiFtBu2))[dE][dE][dE][dE][dE][dE]AYGW[Nle]DF-NH2) | -2.63 ± 0.08
7 | CCCC[C@H](NC(=O)[C@H](Cc1c[nH]c2ccccc12)NC(=O)CNC(=O)[C@H](Cc1ccc(O)cc1)NC(=O)[C@H](C)NC(=O)[C@@H](CCC(=O)O)NC(=O)[C@@H](CCC(=O)O)NC(=O)[C@@H](CCC(=O)O)NC(=O)[C@@H](CCC(=O)O)NC(=O)[C@@H](CCC(=O)O)NC(=O)[C@@H](CCC(=O)O)NC(=O)[C@@H](CCC(=O)O)NC(=O)[C@@H](CNC(=O)c1ccc([Si](F)(C(C)(C)C)C(C)(C)C)cc1)NC(=O)CC[C@H](C(=O)O)N1CCN(CC(=O)O)CCN(CC(=O)O)CCN(CC(=O)O)CC1)C(=O)N[C@@H](CC(=O)O)C(=O)N[C@@H](Cc1ccccc1)C(N)=O [[nat/177Lu]Lu-(R)-DOTAGA-rhCCK-8, metal not drawn] (X1-[dDap](Benzoyl(4-SiFtBu2))[dE][dE][dE][dE][dE][dE][dE]AYGW[Nle]DF-NH2) | -2.19 ± 0.08
8 | CCCC[C@H](NC(=O)[C@H](Cc1c[nH]c2ccccc12)NC(=O)CNC(=O)[C@H](Cc1ccc(O)cc1)NC(=O)[C@H](C)NC(=O)[C@@H](CNC(=O)c1ccc([Si](F)(C(C)(C)C)C(C)(C)C)cc1)NC(=O)CC[C@@H](NC(=O)CC[C@@H](NC(=O)CC[C@@H](NC(=O)CC[C@@H](NC(=O)CC[C@@H](NC(=O)CC[C@@H](NC(=O)CC[C@H](C(=O)O)N1CCN(CC(=O)O)CCN(CC(=O)O)CCN(CC(=O)O)CC1)C(=O)O)C(=O)O)C(=O)O)C(=O)O)C(=O)O)C(=O)O)C(=O)N[C@@H](CC(=O)O)C(=O)N[C@@H](Cc1ccccc1)C(N)=O [[nat/177Lu]Lu-(R)-DOTAGA-rhCCK-10, metal not drawn] ({X1-d(γGlu)-d(γGlu)-d(γGlu)-d(γGlu)-d(γGlu)-d(γGlu)}-[dDap](Benzoyl(4-SiFtBu2))AYGW[Nle]DF-NH2) | -2.15 ± 0.08
9 | CCCC[C@H](NC(=O)[C@H](Cc1c[nH]c2ccccc12)NC(=O)CNC(=O)[C@H](Cc1ccc(O)cc1)NC(=O)[C@H](C)NC(=O)CC[C@@H](NC(=O)[C@@H](CNC(=O)c1ccc([Si](F)(C(C)(C)C)C(C)(C)C)cc1)NC(=O)CC[C@@H](NC(=O)CC[C@@H](NC(=O)CC[C@@H](NC(=O)CC[C@@H](NC(=O)CC[C@@H](NC(=O)CC[C@H](C(=O)O)N1CCN(CC(=O)O)CCN(CC(=O)O)CCN(CC(=O)O)CC1)C(=O)O)C(=O)O)C(=O)O)C(=O)O)C(=O)O)C(=O)O)C(=O)N[C@@H](CC(=O)O)C(=O)N[C@@H](Cc1ccccc1)C(N)=O [[nat/177Lu]Lu-(R)-DOTAGA-rhCCK-11, metal not drawn] ({X1-d(γGlu)-d(γGlu)-d(γGlu)-d(γGlu)-d(γGlu)}-[dDap](Benzoyl(4-SiFtBu2))[d(γGlu)]AYGW[Nle]DF-NH2) | -2.23 ± 0.07
